Experimental data reported in US20140107051A1, “ISOFLAVONES FOR TREATING MUCOPOLYSACCHARIDOSES” (INSTYTUT FARMACEUTYCZNY, priority 2005, published 2014).
“Also recorded” adds a separate entry of the source. Like-named read-outs stand apart in the source and are kept apart here.

What was measured:
[1] = tested on: cultured human skin fibroblasts derived from normal individuals; assay: 35S-sulphate incorporation test of glycosaminoglycans synthesis, normal cells; assay type: cell-based; settings: for Inhibition in relation to genistein, first symbol (normal cells) / activity at 30 µM / Relative GAG synthesis (converted to 1 cell), Normal cells: 30 μM; for activity at 30 µM: Homo sapiens, Skin fibroblast, read-out: Relative GAG synthesis (converted to 1 cell), Normal cells; for activity at 30 µM / Relative GAG synthesis (converted to 1 cell), Normal cells: DMSO control = 1
Procedure: (§1) The activity of isoflavones was evaluated by the measure of glycosaminoglycans synthesis in 35S-sulphate incorporation test comprising incubation of the radiolabelled 35S-sulfate into GAGs in cultured human skin fibroblasts derived from normal individuals (control) and patients affected with mucopolysaccharidose (Murata et al., Arch Biochem Biophys 2003; 413: 229-235).
(§2) The negative control was DMSO (diluent for genistein and all derivatives), the positive control—genistein. […] Experiment with each cell line has been repeated twice, and every measurement has been done twice.

[2] = tested on: fibroblasts of patients affected with MPS I; assay: 35S-sulphate incorporation test of glycosaminoglycans synthesis, MPS I cells; assay type: cell-based, human; settings: for activity at 30 µM: Homo sapiens, Fibroblast, read-out: Relative GAG synthesis (converted to 1 cell), MPS I; for activity at 30 µM / Relative GAG synthesis (converted to 1 cell), MPS I: DMSO control = 1; for activity at 30 µM / Inhibition in relation to genistein, second symbol (MPS I) / Relative GAG synthesis (converted to 1 cell), MPS I: 30 μM
Procedure: as §1, §2

[3] = tested on: cultured human skin fibroblasts derived from patients affected with mucopolysaccharidose; assay: 35S-sulphate incorporation test of glycosaminoglycans synthesis, different human cell lines / MPS types; assay type: cell-based; settings: for influence on GAG synthesis compared with genistein (in words): 30 μM, both cell lines of Table 2
Procedure: as §1, §2

[4] = Proliferation 144 h (Table 4); assay type: cell-based; settings: read-out: Proliferation 144 h IC50
[5] = tested on: fibroblasts cells derived from patients affected with different MPSs; assay: GAG level / deposits in cultured fibroblasts of MPS patients; assay type: cell-based, human
[6] = tested on: fibroblasts; assay: Electron microscope observation of GAG deposits in fibroblasts; assay type: cell-based, human; settings: fibroblasts cultured one week; genistein 10 micromolar
[7] = rat; intravenously administered; cited from earlier work
[8] = tested on: MPS IIIA fibroblasts; assay: Number of lysosomal structures by electron microscopy, MPS IIIA; assay type: cell-based, human; settings: 30 μM
[9] = tested on: MPS IIIB fibroblasts; assay: Number of lysosomal structures by electron microscopy, MPS IIIB; assay type: cell-based, human; settings: 30 μM
[10] = in vitro
[11] = tested on: glycosaminoglycan (GAG) synthesis; assay: GAG synthesis, 35S incorp. (Table 4); assay type: cell-based
[12] = read-out: Cytotoxicity 24 h LC50, 24 h
[13] = read-out: Cytotoxicity 48 h LC50, 48 h

Structure (SMILES) | Inhibition in relation to genistein, first symbol (normal cells) [1] | IC50 [4] | influence on GAG synthesis compared with genistein (in words) [3] | Number of structures per 100 μm^2 of cellular cross section ± SD, amorphous [8] | Number of structures per 100 μm^2 of cellular cross section ± SD, complexed [8] | Number of structures per 100 μm^2 of cellular cross section ± SD, lamellar [8] | Number of structures per 100 μm^2 of cellular cross section ± SD, total number [8] | Number of structures per 100 μm^2 of cellular cross section ± SD, amorphous [9] | Number of structures per 100 μm^2 of cellular cross section ± SD, complexed [9] | Number of structures per 100 μm^2 of cellular cross section ± SD, lamellar [9] | Number of structures per 100 μm^2 of cellular cross section ± SD, total number [9] | Relative GAG synthesis (converted to 1 cell), Normal cells [1] | Relative GAG synthesis (converted to 1 cell), MPS I [2] | GAG synthesis 35S incorp. [11] | CC50 [12] | CC50 [13] | also measured
O=c1c(-c2ccc(O)cc2)coc2cc(O)cc(O)c12 [Genistein, 4′,5,7-trihydroxy-3-phenylchromen-4-on, reference compound] | 0 | 16.9 µM |  |  |  |  |  |  |  |  |  |  |  |  |  |  | activity at 30 µM [1]: 25%; level of glycosaminoglycans synthesis (in words) ([1]; fibroblasts from normal individuals, FIG. 1): significant decreasing; activity at 30 µM [2]: 51%; level of glycosaminoglycans synthesis (in words) ([2]; fibroblasts from MPS 1 patients, FIG. 1): significant decreasing; glycosaminoglycans synthesis (in words) ([3]; cells from individuals with other types of MPS, FIG. 2, FIG. 3): significantly reduced; glycosaminoglycans synthesis (in words) ([3]; cultured fibroblasts from MPS patients, 10-30 micromoles/l): significant inhibition of glycosaminoglycans synthesis; level of glycosaminoglycans in cells (in words) ([5]; cells of MPS I, MPS II, MPS IIIA and MPS IIIB patients, six days): significantly decreased, reaching after six days a level almost identical with the normal one; genistein concentrations at which decrease of GAG synthesis and reduction of deposits is observed ([5]; cultured fibroblasts): 10 to 20 µmol/L; removal of GAG deposits accumulated in cells (in words) ([5]; few days of cultivation, genistein 10 micromoles/l, FIG. 4): deposits are gradually removed; also recorded: comparable with the activity of recombinant human α-L-iduronidase (Aldurazyme); deposits seen by electron microscope (in words) [6]: disappearance of deposits; also recorded: decline of the before accumulated glycosaminoglycans; effectiveness of crossing the blood-brain barrier [7]: about 10%
CC(=O)Oc1ccc(-c2coc3cc(OC(C)=O)cc(OC(C)=O)c3c2=O)cc1 [IFG-032] | 0 | 17.4 µM | an activity comparable with genistein, but only for one cell line | 0.17 ± 0.16 per 100 μm^2 | 0.22 ± 0.11 per 100 μm^2 | 0.14 ± 0.08 per 100 μm^2 | 0.53 ± 0.19 per 100 μm^2 | 0.12 ± 0.08 per 100 μm^2 | 0.10 ± 0.07 per 100 μm^2 | 0.17 ± 0.11 per 100 μm^2 | 0.40 ± 0.20 per 100 μm^2 |  |  |  |  |  | activity at 30 µM [1]: 25%; activity at 30 µM [2]: 68%; CC50 at 24 h [10]: > 30 µM; CC50 at 48 h [10]: > 30 µM
CCC(=O)OCOc1cc(O)c2c(=O)c(-c3ccc(O)cc3)coc2c1 [IFG-036] | 0/0 | 11.2 µM | an activity comparable with genistein | 0.22 ± 0.11 per 100 μm^2 | 0.28 ± 0.16 per 100 μm^2 | 0.19 ± 0.14 per 100 μm^2 | 0.73 ± 0.31 per 100 μm^2 | 0.15 ± 0.18 per 100 μm^2 | 0.12 ± 0.11 per 100 μm^2 | 0.25 ± 0.21 per 100 μm^2 | 0.50 ± 0.34 per 100 μm^2 | 0.27 | 0.49 | 64 ± 21% | > 30 µM | > 30 µM | Inhibition in relation to genistein, second symbol (MPS I) [2]: 0/0
CCCC[N+](CCCC)(CCCC)CCCC.O=C([O-])CCCC(=O)Oc1cc(O)c2c(=O)c(-c3ccc(O)cc3)coc2c1 [IFG-038] |  | 19.9 µM | an activity comparable with genistein | 0.21 ± 0.13 per 100 μm^2 | 0.27 ± 0.13 per 100 μm^2 | 0.32 ± 0.16 per 100 μm^2 | 0.80 ± 0.24 per 100 μm^2 | 0.09 ± 0.09 per 100 μm^2 | 0.10 ± 0.10 per 100 μm^2 | 0.21 ± 0.12 per 100 μm^2 | 0.41 ± 0.18 per 100 μm^2 | 0.74 | 0.74 | 55 ± 13% | > 30 µM | > 30 µM | 
Cc1ccc(S(=O)(=O)OCCOCCOCCOc2cc(O)c3c(=O)c(-c4ccc(O)cc4)coc3c2)cc1 [IFG-046] | − |  |  |  |  |  |  |  |  |  |  | 1.80 | 0.49 | 118 ± 72% | 20.7 µM |  | Inhibition in relation to genistein, second symbol (MPS I) [2]: 0
O=C([O-])CCCC(=O)Oc1ccc(-c2coc3cc(OCc4ccccc4)cc(O)c3c2=O)cc1.[Na+] [IFG-061] | 0/0 |  |  |  |  |  |  |  |  |  |  | 0.28 | 0.46 |  | 18.8 µM |  | 
CCCC[N+](CCCC)(CCCC)CCCC.O=C([O-])COc1cc(O)c2c(=O)c(-c3ccc(O)cc3)coc2c1 [IFG-074, tetrabutylammonium[5-hydroxy-3-(4-hydroxy-phenyl)-4-oxo-4H-chromen-7-yloxy]acetate] |  | 27.3 µM |  |  |  |  |  |  |  |  |  |  |  | 88 ± 39% | 44.1 µM | 32.8 µM | 
